Measurements reported in patent US11236086B2, “Substituted pyrrolopyridines as inhibitors of activin receptor-like kinase” (BLUEPRINT MEDICINES CORPORATION, priority 2017, dated 2022).
pIC50: −log10 of the molar value.

Legend:
[1] = target: T1, ALK2R206H (mutant ALK2, N-terminally tagged with GST) (Homo sapiens, UniProt Q04771, R206H); assay: ALK binding assay (LANTHASCREEN TR-FRET competitive binding, displacement of Kinase Tracer 178); conditions: read-out: Binding Assay (IC50 class)
T1 construct: purchased Carna Bioscience or ThermoFisher 09-148 or PV6232
T1 sequence (Q04771 21-509 R206H): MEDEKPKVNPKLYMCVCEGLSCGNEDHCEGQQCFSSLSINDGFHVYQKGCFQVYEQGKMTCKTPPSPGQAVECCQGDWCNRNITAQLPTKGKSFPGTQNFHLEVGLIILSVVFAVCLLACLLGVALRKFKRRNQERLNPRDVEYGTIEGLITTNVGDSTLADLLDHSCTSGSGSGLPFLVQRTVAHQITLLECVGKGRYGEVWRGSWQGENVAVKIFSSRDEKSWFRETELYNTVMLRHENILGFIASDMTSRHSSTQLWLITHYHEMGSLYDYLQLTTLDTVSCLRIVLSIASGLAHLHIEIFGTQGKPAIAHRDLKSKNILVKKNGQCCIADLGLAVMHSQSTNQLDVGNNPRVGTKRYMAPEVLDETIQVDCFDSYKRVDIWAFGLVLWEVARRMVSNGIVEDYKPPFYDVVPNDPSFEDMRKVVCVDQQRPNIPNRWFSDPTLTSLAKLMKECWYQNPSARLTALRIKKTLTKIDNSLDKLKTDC
How it was run: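 GST-tagged ALK2 R206H (2-5 nM) mixed with Eu-anti-GST antibody (4-10 nM), Kinase Tracer 178 (50 nM, near its Kd) and compound titration (1% DMSO) in Kinase Buffer A, 30 min at room temperature. Tracer displacement read as TR-FRET ratio, normalized to controls; IC50 from 4-parameter fit.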

human ALK2 R206H = target: T2, human ALK2 R206H (Homo sapiens, UniProt Q04771, R206H); assay: Cell-based ALK2-R206H cell activity assay (Smad1-Ser463/Ser465 phosphorylation by AlphaLISA in HEK293-ALK2-R206H cells); conditions: phospho-Smad1 AlphaLISA, read-out: Cell Line (Cell Assay, IC50 class)
T2 construct: expressed in transfected cells; host or cells: HEK293 (ATCC CRL1573), lentivirus transduction, blasticidin selection
T2 sequence (Q04771 21-509 R206H): T1 sequence (Q04771 21-509 R206H)
How it was run: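 HEK293 stable line expressing human ALK2 R206H with C-terminal FLAG, plated overnight in serum-free medium. Cells were treated 2-3 h with compound over 10 3-fold doses, top 10 μM or 1 μM, in duplicate. Phospho-Smad1 Ser463/465 in lysate was read by AlphaLISA; IC50 was normalised to DMSO (0%) and 1 μM LDN193189 (100%).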

pIC50 [1]	pIC50 (human ALK2 R206H)	Compound
≥ 8.00	≥ 7.00	Cc1c(-c2cc3c(N4CCN(C(=O)[C@H]5CC[C@H](C#N)CC5)CC4)ccnc3[nH]2)cnn1C(C)C [Compound 423]
≥ 8.00	≥ 7.00	CCN1CCN(c2ccc(-c3cc4c(N5CCN(C(=O)C6CC6)CC5)ccnc4[nH]3)nc2)CC1 [Compound 424]
≥ 8.00	≥ 7.00	O=C(OC1COC1)N1CCN(c2ccnc3[nH]c(-c4ccc(C5=CCOCC5)cc4)cc23)CC1 [Compound 425]
≥ 8.00	6.30 to 7.00	Cn1cc(-c2[nH]c3nccc(N4CCN(C(=O)OC5COC5)CC4)c3c2Br)cn1 [Compound 426]
≥ 8.00	≥ 7.00	O=C(OC1COC1)N1CCN(c2ccnc3[nH]c(-c4ccc(C5(O)CCCC5)cc4)cc23)CC1 [Compound 427]
≥ 8.00	≥ 7.00	O=C(OC1COC1)N1CCN(c2ccnc3[nH]c(-c4ccc([C@@]5(O)CCOC5)cc4)cc23)CC1 [Compound 428]
≥ 8.00	≥ 7.00	O=C(OC1COC1)N1CCN(c2ccnc3[nH]c(-c4ccc([C@]5(O)CCOC5)cc4)cc23)CC1 [Compound 429]
≥ 8.00	≥ 7.00	O=C(C1CC1)N1CCN(c2ccnc3[nH]c(-c4ccc(C5CCNCC5(F)F)cc4)cc23)CC1 (stereo not drawn) [Compound 431]
≥ 8.00	≥ 7.00	Cc1nc(-c2cc3c(N4CCN(C(=O)O[C@H]5CC(F)(F)C5(F)F)CC4)ccnc3[nH]2)cn1C [Compound 432]
≥ 8.00	≥ 7.00	Cc1nc(-c2cc3c(N4CCN(C(=O)O[C@@H]5CC(F)(F)C5(F)F)CC4)ccnc3[nH]2)cn1C [Compound 433]
≥ 8.00	≥ 7.00	N#Cc1c(-c2nc3c(s2)COCC3)[nH]c2nccc(N3CCN(C(=O)OC4COC4)CC3)c12 [Compound 434]
≥ 8.00	≥ 7.00	CCS(=O)(=O)c1ccc(-c2cc3c(N4CCN(C(=O)OC5COC5)CC4)ccnc3[nH]2)cc1 [Compound 436]
≥ 8.00	≥ 7.00	O=C(C1CC1)N1CCN(c2ccnc3[nH]c(-c4ccc(N5CCNC6(COC6)C5)cc4)cc23)CC1 [Compound 437]
≥ 8.00	≥ 7.00	CC(C)N1CCN(c2ccc(-c3cc4c(N5CCN(C(=O)C6CC6)CC5)ccnc4[nH]3)cc2)CC1 [Compound 438]
≥ 8.00	≥ 7.00	CCN1CCN(c2ccc(-c3cc4c(N5CCN(C(=O)C6CCC6)CC5)ccnc4[nH]3)cc2)CC1 [Compound 439]
≥ 8.00	≥ 7.00	N#Cc1c(-c2nc3c(s2)COCC3)[nH]c2nccc(N3CCN(C(=O)OCC(F)F)CC3)c12 [Compound 440]
≥ 8.00	≥ 7.00	CCOC(=O)N1CCN(c2ccnc3[nH]c(-c4ccc(C5(O)CCOCC5)cc4C#N)cc23)CC1 [Compound 441]
≥ 8.00	≥ 7.00	CCN1CCC(c2ccc(-c3cc4c(N5CCN(C(=O)C6CC6)CC5)ccnc4[nH]3)cc2)C(F)C1 (stereo not drawn) [Compound 442]
≥ 8.00	≥ 7.00	CCN1CCN(c2ccc(-c3cc4c(N5CCN(C(=O)C6CC6)CC5)ccnc4[nH]3)c(F)c2)CC1 [Compound 444]

Further lines, the compound ahead of its results:

Compound	pIC50 [1]	pIC50 (human ALK2 R206H)
O=C(C1CC1)N1CCN(c2ccnc3[nH]c(-c4ccc(C5(O)CCOCC5)cc4)cc23)CC1 [Compound 386]	≥ 8.00	≥ 7.00
Cc1nc(-c2cc3c(N4CCN(C(=O)OC5CS(=O)(=O)C5)CC4)ccnc3[nH]2)cs1 [Compound 387]	≥ 8.00	≥ 7.00
CN(C)C(=O)COc1ccc(-c2cc3c(N4CCN(C(=O)C5CC5)CC4)ccnc3[nH]2)cc1 [Compound 388]	≥ 8.00	6.30 to 7.00
O=C(C1CC1)N1CCN(c2ccnc3[nH]c(-c4ccc(C5CCNCC5F)cc4)cc23)CC1 (stereo not drawn) [Compound 389]	≥ 8.00	≥ 7.00
O=C(C1CC1)N1CCN(c2ccnc3[nH]c(-c4ccc(C5(F)CCCNC5)cc4)cc23)CC1 (stereo not drawn) [Compound 390]	≥ 8.00	≥ 7.00
O=C(OC1COC1)N1CCN(c2ccnc3[nH]c(-c4ccc(C5(O)CCC5)cc4)cc23)CC1 [Compound 392]	≥ 8.00	≥ 7.00
N#Cc1c(-c2cn3c(n2)COCC3)[nH]c2nccc(N3CCN(C(=O)OC4COC4)CC3)c12 [Compound 394]	≥ 8.00	≥ 7.00
N#Cc1c(-c2nc3c(s2)COCC3)[nH]c2nccc(N3CCN(C(=O)OC4CC4)CC3)c12 [Compound 395]	≥ 8.00	≥ 7.00
CCOC(=O)N1CCN(c2ccnc3[nH]c(-c4ccc(C5(O)CCOCC5)cn4)cc23)CC1 [Compound 396]	≥ 8.00	≥ 7.00
Cn1cc(-c2[nH]c3nccc(N4CCN(C(=O)[C@H]5CC[C@H](C#N)CC5)CC4)c3c2Cl)cn1 [Compound 397]	≥ 8.00	≥ 7.00
Cn1cc(-c2cc3c(N4CCN(C(=O)O[C@@H]5CC(F)(F)C5(F)F)CC4)ccnc3[nH]2)cn1 [Compound 398]	≥ 8.00	≥ 7.00
Cn1cc(-c2cc3c(N4CCN(C(=O)OC5CC(F)(F)C5(F)F)CC4)ccnc3[nH]2)cn1 (stereo not drawn) [Compound 399]	≥ 8.00	6.30 to 7.00
Cn1cc(-c2cc3c(N4CCN(C(=O)O[C@H]5CC(F)(F)C5(F)F)CC4)ccnc3[nH]2)cn1 [Compound 401]	≥ 8.00	≥ 7.00
O=C(OC1COC1)N1CCN(c2ccnc3[nH]c(-c4cn(C5CCOCC5)cn4)cc23)CC1 [Compound 403]	≥ 8.00	≥ 7.00
O=C(OC1COC1)N1CCN(c2ccnc3[nH]c(-c4cnn(C(F)F)c4)c(Cl)c23)CC1 [Compound 407]	≥ 8.00	≥ 7.00
O=C(OC1COC1)N1CCN(c2ccnc3[nH]c(-c4csc(C(F)(F)F)n4)cc23)CC1 [Compound 408]	≥ 8.00	6.30 to 7.00
Cc1nc(-c2[nH]c3nccc(N4CCN(C(=O)OC5CC(F)(F)C5)CC4)c3c2C#N)cn1C [Compound 412]	≥ 8.00	≥ 7.00
Cc1nc(-c2[nH]c3nccc(N4CCN(C(=O)OC5CCC5(F)F)CC4)c3c2C#N)cn1C (stereo not drawn) [Compound 413]	≥ 8.00	≥ 7.00
Cn1cc(-c2[nH]c3nccc(N4CCN(C(=O)OC5CS(=O)(=O)C5)CC4)c3c2C#N)cn1 [Compound 414]	≥ 8.00	≥ 7.00
CCNC(=O)c1nc(-c2cc3c(N4CCN(C(=O)OC5COC5)CC4)ccnc3[nH]2)cs1 [Compound 415]	≥ 8.00	6.30 to 7.00
O=C(O[C@H]1C[C@H](F)C1)N1CCN(c2ccnc3[nH]c(-c4nc5c(s4)COCC5)cc23)CC1 [Compound 416]	≥ 8.00	≥ 7.00
O=C(OC1COC1)N1CCN(c2ccnc3[nH]c(-c4nc5c(s4)CSCC5)cc23)CC1 [Compound 417]	≥ 8.00	≥ 7.00
CCN1CCN(c2ccc(-c3cc4c(N5CCN(C(=O)C6CC6)CC5)ccnc4[nH]3)cc2)CC1 [Compound 418]	≥ 8.00	≥ 7.00
O=C(COc1ccc(-c2cc3c(N4CCN(C(=O)C5CC5)CC4)ccnc3[nH]2)cc1)N1CCC1 [Compound 420]	≥ 8.00	6.30 to 7.00
O=C(C1CC1)N1CCN(c2ccnc3[nH]c(-c4ccc(OCCN5CCCC5)cc4)cc23)CC1 [Compound 421]	≥ 8.00	≥ 7.00
Cc1nn(C(C)C)cc1-c1cc2c(N3CCN(C(=O)[C@H]4CC[C@H](C#N)CC4)CC3)ccnc2[nH]1 [Compound 422]	≥ 8.00	≥ 7.00
